The record followed here is patent publication US20260297542A1, “HERBICIDE RESISTANT PLANTS” (SYNGENTA CROP PROTECTION AG, priority 2023, published 2026).

For assay [1], the target named is T1, His-TEV-AtPP01 ΔcTP (SEQ ID NO: 370) (Arabidopsis thaliana, UniProt P55826).
T1 construct: with cTPs removed; made in house; host or cells: E. coli BL21 (DE3), His GraviTrap, partially purified
T1 sequence (P55826 with tags, fused parts or gaps): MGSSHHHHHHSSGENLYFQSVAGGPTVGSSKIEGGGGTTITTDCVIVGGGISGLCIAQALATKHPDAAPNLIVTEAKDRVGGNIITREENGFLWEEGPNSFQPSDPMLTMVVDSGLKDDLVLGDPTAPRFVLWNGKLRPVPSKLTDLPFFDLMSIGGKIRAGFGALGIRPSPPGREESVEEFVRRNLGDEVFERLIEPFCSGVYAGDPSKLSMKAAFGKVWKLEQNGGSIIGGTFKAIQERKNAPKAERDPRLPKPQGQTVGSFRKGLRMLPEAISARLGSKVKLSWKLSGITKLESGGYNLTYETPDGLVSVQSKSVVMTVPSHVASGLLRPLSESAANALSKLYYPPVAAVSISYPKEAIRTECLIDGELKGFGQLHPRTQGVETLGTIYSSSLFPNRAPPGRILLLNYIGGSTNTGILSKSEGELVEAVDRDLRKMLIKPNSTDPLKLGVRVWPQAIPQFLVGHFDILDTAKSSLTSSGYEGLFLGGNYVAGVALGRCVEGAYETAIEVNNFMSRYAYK
Put plainly: PPO fluorescence IC50 assay, partially purified enzyme. Type of assay: biochemical. From the text: (§1) A pET24 plasmid containing a DNA sequence encoding variants of AtPPO1 derived from Arabidopsis thaliana with cTPs removed and both a 6×His tag and TEV protease cleavage tag added at the N-terminus, codon-optimised for expression in E. coli, and under control of a T7 promoter, was synthesised by Twist Bioscience. The following variants were synthesised: WT AtPPO1 (SEQ ID NO: 370), AtPPO1 L479M (SEQ ID NO: 371), AtPPO1 L479N (SEQ ID NO: 372), AtPPO1 S305L Y426V (SEQ ID NO: 374) and AtPPO1 S305L Y426V L479M (SEQ ID NO: 373). This plasmid was expressed in E. coli BL21 (DE3) with 50 μg/mL kanamycin selection. 10 mL of overnight cultures grown at 37° C. were used to inoculate 1 L AIM (AIM-Terrific Broth Base including Trace elements, Formedium) in 2 L shake flasks. Cultures were grown at 37° C., 200 rpm for 3 hours and then overnight at 26° C. Cells were harvested centrifugation. 5-15 g of cell pellet was lysed in and resuspended in ratio of 1:1.5 in lysis buffer (20 mM Tris pH8, 500 mM sodium chloride, 10% glycerol, 1× complete Protease EDTA-free Inhibitor Tablet (Roche), 10 mM imidazole). The resuspension was sonicated at 75% using 10 cycles of 30 seconds, 40 seconds off. After sonication Triton X-100 was added to the lysates at a final concentration of 0.5%. The lysates were centrifuged at 20,000 rpm for 25 min at 4° C. Cleared lysates were loaded on His GraviTrap (Cytiva) columns, washed with 20 mL of lysis buffer and eluted in elution buffer (20 mM Tris pH8, 500 mM sodium chloride, 10% glycerol, 200 mM imidazole, 0.03% (v/v) Triton X-100). The eluate was desalted on a PD10 column and 2.5-3.2 mL was collected. Protein concentration was measured and calculated using the absorbance at 280 nm. Extracts were diluted 1 in 4 and 10 uL was analysed by SDS PAGE.
(§2) Partially purified Protoporphyrinogen Oxidase enzymes were assayed for activity using fluorescence adapted from the method of Shepherd & Dailey (Anal Biochem. 2005 344(1) 115-121). The assay was performed in black 384 well plates with a clear bottom and the total volume of the reaction mixture was 91 ul. The final assay mixture contained 100 mM K2HPO4 pH7.2, 1 mM Na2EDTA, 5 mM DTT, 20% glycerol (v/v), 0.05% Tween 20 (v/v), 1.1% DMSO (v/v), 1 uM protoporphyrinogen IX and 1.5 nM enzyme. Compounds were dissolved in DMSO at 1 mM and a 4-fold serial dilution carried out to give 8 rates. 1 ul was added to the assay mixture. This gave final compound concentrations of 11, 2.7, 0.69, 0.17, 0.04, 0.01, 0.002, 0.0007 uM. Enzyme and inhibitor were preincubated for 5 minutes prior to starting the reaction with the addition of the substrate. […] IC50s were calculated using GraphPad Prism 7.05 nonlinear regression (Table 6). Each compound was tested in duplicate.

Assay [2] addresses T2, His-TEV-AtPP01 ΔcTP V030 (SEQ ID NO: 374) (Arabidopsis thaliana, UniProt P55826, S305L/Y426V).
T2 construct: with cTPs removed; made in house; host or cells: E. coli BL21 (DE3), His GraviTrap, partially purified
T2 sequence (P55826 with tags, fused parts or gaps S305L/Y426V): T1 sequence (P55826 with tags, fused parts or gaps) with S290L, Y411V
The description is as above. The assay is classed as biochemical.
From the text: as §1, §2

[3] abbreviates: role: inhibitor, 1 uM protoporphyrinogen IX, <1.0 is below detection limit of assay.

Positions count from the first letter of the chain named. Read-outs that look alike come from different tables or passages of the source.

Regarding `C#CCN1C(=O)C(F)(F)Oc2cc(F)c(-n3c(=O)n(C)c(=S)n(C)c3=O)cc21` [Herbicide B, trifludimoxazin], the IC50 (usually the midpoint of a concentration-inhibition curve) is 0.7 nM in assay [1] and 1.3 nM in assay [2].

On to `COC(=O)C(C)ON=Cc1cc(-n2c(=O)cc(C(F)(F)F)n(C)c2=O)c(F)cc1Cl` (stereo not shown) [Flufenoximacil, flufenoximacil], for which the IC50 is 0.6 nM in assay [1] (setting [3]) and 717 nM in assay [2] (setting [3]).

For the compound `CC(C)Oc1cc(-n2nc(C(C)(C)C)oc2=O)c(Cl)cc1Cl` [Oxadiazaon], the IC50 in assay [1] stood at 19 nM; in assay [2], 4600 nM.

With `CCOC(=O)COc1ncccc1Oc1cc(-n2c(=O)cc(C(F)(F)F)n(C)c2=O)c(F)cc1Cl` [Herbicide A, epyrifenacil], the IC50 in assay [1] amounted to 0.7 nM; in assay [2] it was 323 nM.

As to `C#CCN1C(=O)COc2cc(F)c(N3C(=O)C4=C(CCCC4)C3=O)cc21` [Flumioxazin, flumioxazin], the results for the IC50 in assay [1] and in assay [2] were 0.8 nM and 47.2 nM, respectively.

For the compound `C#CCOc1cc(-n2nc3n(c2=O)CCCC3)c(Cl)cc1Cl` [Azafenadin], the IC50 is 0.8 nM in assay [1] and 117 nM in assay [2].

As for `CCOC(=O)COc1cc(-c2nn(C)c(OC(F)F)c2Cl)c(F)cc1Cl` [Pyraflufen-ethyl, pyraflufen-ethyl], the values for the IC50 in assay [1] and in assay [2] were 0.6 nM and 18.6 nM, respectively.

Take `CCOC(=O)[C@]1(C)CC(c2cc(-n3c(=O)n(C)c(=S)n(C)c3=O)c(F)cc2Cl)=NO1` [Herbicide D, ethyl (5S)-3-[2-chloro-5-(3,5-dimethyl-2,6-dioxo-4-thioxo-1,3,5-triazinan-1-yl)-4-fluoro-phenyl]-5-methyl-4H-isoxazole-5-carboxylate]: in assay [2], the IC50 worked out at 269 nM.

For the compound `C=CCOC(=O)C(C)(C)OC(=O)c1cc(-n2c(=O)cc(C(F)(F)F)n(C)c2=O)ccc1Cl` [Butafenacil, butafenacil], the figures for the IC50 in assay [1] and in assay [2] were 0.6 nM and 11 nM, respectively.

As for `CC(C)N(C)S(=O)(=O)NC(=O)c1cc(-n2c(=O)cc(C(F)(F)F)n(C)c2=O)c(F)cc1Cl` [Herbicide E, saflufenacil], the IC50 in assay [1] came to 2.1 nM; in assay [2] it was 547 nM.

Regarding `CCOC(=O)C1(C)CC(c2cc(-n3c(=O)cc(C(F)(F)F)n(C)c3=O)c(F)cc2Cl)=NO1` (stereo not shown) [Herbicide C, 3-(2-chloro-4-fluoro-5-(3-methyl-2,6-dioxo-4-trifluoromethyl-3,6-dihydropyrimidin-1(2H)-yl)phenyl)-5-methyl-4,5-dihydroisoxazole-5-carboxylic acid ethyl ester], the figures for the IC50 in assay [1] and in assay [2] were 0.7 nM and 92 nM, respectively.

Consider `C#CCN(C)c1c(C#N)cnn1-c1nn2c(c1Cl)CCCC2` [Pyraclonil], for which the figures for the IC50 in assay [1] and in assay [2] were 2.5 nM and 4350 nM, respectively.

Regarding `CS(=O)(=O)NC(=O)c1cc(Oc2ccc(C(F)(F)F)cc2Cl)ccc1[N+](=O)[O-]` [Fomesafen, fomesafen], the IC50 in assay [1] worked out at 1.8 nM; in assay [2], 0.7 nM.
